# Data published in US9562082B2, “Production of glycoproteins with low N-glycolylneuraminic acid (Neu5Gc) content” (LEK Pharmaceuticals D.D., priority 2009, dated 2017).
# System: Recombinant CHO cells
# Assay: Neu5Gc content of glycoprotein secreted by CHO cells cultivated with medium additives (RP-HPLC of DMB-labelled sialic acids)
# Format: cell-based, Chinese hamster
# Settings: NAcMan 5 mM in fermentation medium, darbepoetin alfa
# From the text: Recombinant CHO cells expressing high titres of the glycosylated human glycoproteins were cultivated in suspension culture using rich in-house standard medium without additives according to the invention. After 2 weeks of passages, the cells were first harvested and subsequently inoculated into the same medium, however, supplemented with a range of DMSO concentrations from 0.25% to 1.50% (w/v). The effect of DMSO on growth, productivity, degree of sialylation, and Neu5Gc content was studied.
# “One factor at the time”-experiments with different DMSO concentrations at 37° C. and 33° C., respectively, were performed at first in an attempt to determine the DMSO concentration and temperature which are best to minimise the Neu5Gc content on the glycoproteins secreted. To study the interaction between the parameters (i) DMSO concentration, (ii) time of DMSO addition, and (iii) time of the temperature shift (from 37° C. to 33° C.), further experiments were performed with the Design-Expert/Design-Ease programme (Stat-Ease, Inc., Minneapolis, Minn., USA) using the response surface method. Parameters (i), (ii), and (iii) were chosen as numeric factors and the axial points were set slightly out of already known ranges in order to cover a wide design space. One replicate on axial points, one replicate on factorial points and 4 centre points were performed. The results were analysed using the Design of Expert (DOE) software (Design-Expert, Version 7.1). The results of the shake flask experiments were confirmed in the Biostat®B bioreactor (Sartorius, B. Braun Biotech International, Germany). Exponentially growing cells were taken from cell culture flasks having a surface area of 225 cm^2 (Corning®Costar®). A Biostat®B bioreactor with a working volume of 5 litres was inoculated with 2×10^5 cells/ml. Cells were cultivated in a batch mode under standard conditions (37° C., pH 7.0, dissolved oxygen concentration (DOT) 50%) in the rich in-house standard medium supplemented with 0.75% (w/v) DMSO.
# In order to study the effect of key intermediates of the metabolic pathway leading to the sialylation of the glycoproteins and consequently to the conversion of Neu5Ac to Neu5Gc, a two factorial minimal resolution IV design, which allows for the estimation of the main effects, was established. Said design allowed the determination which of the components NAcMan, NAcGlc, Man, Fru, and Gal has/have an impact on the degree of sialylation and conversion of Neu5Ac to Neu5Gc. To confirm the results from the DOE findings, the production medium was enriched with 8.75 mM NAcMan and 8.75 mM NAcGlc in combination with manganese (Mn^2+) salts in different concentrations, e.g., in the concentrations mentioned earlier in this application.
# At the end of the batch culture the cells were removed. The glycoproteins were purified from the remaining harvests by means of immuno-affinity chromatography. Briefly, up to 2 mg of each of the glycoproteins per ml of the chromatographic resin (20-500 ml of the harvest) were loaded onto the column. Elution of the glycoproteins was performed with 0.1 M Na-phosphate buffer, pH 2.5. By adding 1 M Na-phosphate buffer, pH 7.5 (made up by a combination of Na2H-phosphate and NaH2-phosphate), the pH of the eluate was immediately adjusted to 7 and then stored for further analysis at below −60° C.
# Sialic acids (Neu5Gc, Neu5Ac, Neu-5,7Ac2, Neu5Gc9Ac, Neu-5,9Ac2, Neu-5,8,9Ac3) were differentiated using highly sensitive RP-HPLC. Enzymatic desialylation with neuraminidase (a2-3,6,8,9-neuraminidase (Sialidase) from Arthrobacter ureafaciens, Roche, USA) released sialic acids. The released sialic acids were labelled with the fluorescent dye 1,2-diamino-4,5-methylenedioxybenzene (DMB). DMB-labelling is non-selective and therefore provides a pool of labelled sialic acid derivates in stoichiometric amounts. Derivates of the DMB-labelled sialic acids were separated on an RP-HPLC column using isocratic elution. […]
row,Molecule,content of Neu5Gc
1,"CC(=O)N[C@@H]1C(O)O[C@H](CO)[C@@H](O)[C@@H]1O (stereo partly drawn) [NAcMan, N-acetylmannosamine]",about 0.5%

# Biological target: T1, CMP-Neu5Ac hydroxylase (Mus musculus, UniProt Q61419)
# T1 sequence (Q61419 5-577): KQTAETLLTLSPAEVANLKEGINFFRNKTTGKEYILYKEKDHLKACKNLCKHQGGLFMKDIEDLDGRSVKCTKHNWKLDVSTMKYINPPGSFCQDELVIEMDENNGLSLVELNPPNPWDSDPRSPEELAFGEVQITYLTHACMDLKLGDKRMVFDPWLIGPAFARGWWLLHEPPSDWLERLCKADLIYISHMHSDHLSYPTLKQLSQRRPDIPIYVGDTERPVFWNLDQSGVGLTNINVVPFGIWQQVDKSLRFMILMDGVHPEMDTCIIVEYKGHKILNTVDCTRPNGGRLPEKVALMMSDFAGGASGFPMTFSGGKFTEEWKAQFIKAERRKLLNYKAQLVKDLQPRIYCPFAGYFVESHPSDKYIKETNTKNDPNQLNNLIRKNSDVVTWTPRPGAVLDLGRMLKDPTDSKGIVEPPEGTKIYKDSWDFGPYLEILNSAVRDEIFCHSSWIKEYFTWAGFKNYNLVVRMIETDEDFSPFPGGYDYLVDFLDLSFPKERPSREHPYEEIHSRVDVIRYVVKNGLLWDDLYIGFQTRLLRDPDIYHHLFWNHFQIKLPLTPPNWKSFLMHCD
# Assay: not given
# Set-up: concentration or dose not given beside the values
# Settings: in vitro; cited from earlier work
row,Molecule,inhibition of CMP-Neu5Ac hydroxylase [%]
1,[Co+2] [Co^2+],50
2,[Cu+2] [Cu^2+],80
3,O=C(O)CN(CCN(CC(=O)O)CC(=O)O)CC(=O)O [EDTA],60
4,[Mn+2] [Mn^2+],50
5,[Ni+3] [Ni^3+],50
6,[Zn+2] [Zn^2+],30
7,O=S(=O)([O-])c1ccc(-c2nnc(-c3ccccn3)nc2-c2ccc(S(=O)(=O)[O-])cc2)cc1.[Na+].[Na+] [ferozzine],25
8,c1cnc2c(c1)ccc1cccnc12 [phenanthreoline],25
9,O=S(=O)(O)c1cc(O)c(O)c(S(=O)(=O)O)c1 [tiron],100

# System: chickens
# Assay: not given
# Settings: rhEPO 1% Neu5Gc, fetuin 7% Neu5Gc, GM3 all Neu5Ac converted into Neu5Gc; cited from earlier work
row,Molecule,titre of antibodies against Neu5Gc in immunised chickens
1,fetuin: glycoprotein with a content of Neu5Gc amounting to 7%,a significant titre of antibodies against Neu5Gc
2,rhEPO: recombinant human erythropoietin produced by Chinese hamster ovary (CHO) cells,did not produce a significant titre
